In patent publication US5140040A, “1-aminomethyl-1,2,3,4-tetrahydronaphthalenes” (Abbott Laboratories, priority 1991, dated 1992):
Structures can show the parent of a compound that is named as a salt.

What was measured:
alpha-1-receptor = biological target: T1, alpha-1-receptor (Rattus norvegicus, UniProt P15823); assay: Radioligand binding, alpha-1 adrenoceptor, rat liver homogenates, [^3 H]-prazosin
T1 construct: rat liver homogenates; from tissue; host or cells: rat liver homogenates
T1 sequence (P15823 1-515): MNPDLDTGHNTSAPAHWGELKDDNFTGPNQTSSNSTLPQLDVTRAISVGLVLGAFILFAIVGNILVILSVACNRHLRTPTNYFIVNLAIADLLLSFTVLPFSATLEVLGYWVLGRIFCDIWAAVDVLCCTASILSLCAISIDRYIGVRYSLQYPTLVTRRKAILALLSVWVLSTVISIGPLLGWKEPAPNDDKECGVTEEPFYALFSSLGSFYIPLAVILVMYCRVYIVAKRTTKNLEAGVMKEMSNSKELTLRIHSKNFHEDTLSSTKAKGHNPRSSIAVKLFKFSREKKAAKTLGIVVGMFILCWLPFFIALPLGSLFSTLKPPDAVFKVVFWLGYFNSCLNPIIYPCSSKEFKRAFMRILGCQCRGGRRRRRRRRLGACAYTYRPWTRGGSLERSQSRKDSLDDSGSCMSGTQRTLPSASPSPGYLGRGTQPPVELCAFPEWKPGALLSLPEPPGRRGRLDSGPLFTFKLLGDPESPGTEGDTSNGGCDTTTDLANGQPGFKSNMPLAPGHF
Description: (§1) The compounds were assessed for alpha-adrenergic receptor subtype selectivity by use of radioligand binding techniques as described previously (DeBernardis et.al. J. Med. Chem. 28, 1398 (1985)).

alpha-2-receptor = assay: Radioligand binding, alpha-2 adrenoceptor, rat cerebral cortices, [^3 H]-rauwolscine; settings: for Ki: rat cerebral cortices, [^3 H]-rauwolscine; for alpha-2 - Selectivity Ki alpha-1/Ki alpha 2: ratio of Ki alpha-1 to Ki alpha-2
Description: as §1

intraocular pressure = assay: Effect of topically administered compounds on intraocular pressure of rabbits; type: in vivo, New Zealand rabbits; settings: 0.3% soln., 0.1 ml topical
Description: The intraocular pressure lowering effects of the compounds were evaluated in unanesthetized male albino, New Zealand rabbits weighing 2.0 to 2.5 kg. The rabbits were placed in Plas Labs restraining devices for the duration of the experiment. Intraocular pressure (IOP) was measured with a Bausch and Lomb Applamatic Tonometer and recorded as the average of three individual readings at each time point in the experiment. Baseline IOP values were established at three time points separated by 30 minutes. Each compound or vehicle was applied topically to the cornea in a volume of 0.1 ml to one eye in each six rabbits. The contralateral eye was untreated. IOP was recorded at 5, 15, 30, 60 and 90 minutes after dosing.

Compound	Ki (alpha-1-receptor) [nM]	Ki (alpha-2-receptor) [nM]	alpha-2 - Selectivity Ki alpha-1/Ki alpha 2 (alpha-2-receptor)	% Change in Intraocular Pressure After Treatment Compared to Untreated Eye (intraocular pressure; 5 minutes) [%]	% Change in Intraocular Pressure After Treatment Compared to Untreated Eye (intraocular pressure; 15 minutes) [%]	% Change in Intraocular Pressure After Treatment Compared to Untreated Eye (intraocular pressure; 30 minutes) [%]	% Change in Intraocular Pressure After Treatment Compared to Untreated Eye (intraocular pressure; 60 minutes) [%]	% Change in Intraocular Pressure After Treatment Compared to Untreated Eye (intraocular pressure; 90 minutes) [%]
CN(CCc1ccccc1)CC1CCCc2cc(O)ccc21 (centres unmarked) [11 (HCl salt)]	254	1.7	149	-38	-55	-54	-44	-20
CN(CCc1cccs1)CC1CCCc2cc(Cl)ccc21 (centres unmarked) [Example 49, 1-((N-Methylamino)meth-N-(2-(2-thienyl)ethyl))-6-chloro tetralin hydrochloride]	1130	10	113	–	–	–	–	–
Fc1ccc2c(c1)CCCC2CN1CCC(c2cccs2)C1 (centres unmarked) [Example 149, 6-Fluoro-1-(3-(2-thienyl)pyrrolidino-1-methyl) tetralin methanesulfonate]	220	4.9	45	–	–	–	–	–

More lines, main results first:

Ki (alpha-1-receptor) [nM]	Ki (alpha-2-receptor) [nM]	alpha-2 - Selectivity Ki alpha-1/Ki alpha 2 (alpha-2-receptor)	Compound	% Change in Intraocular Pressure After Treatment Compared to Untreated Eye (intraocular pressure; 5 minutes) [%]	% Change in Intraocular Pressure After Treatment Compared to Untreated Eye (intraocular pressure; 15 minutes) [%]	% Change in Intraocular Pressure After Treatment Compared to Untreated Eye (intraocular pressure; 30 minutes) [%]	% Change in Intraocular Pressure After Treatment Compared to Untreated Eye (intraocular pressure; 60 minutes) [%]	% Change in Intraocular Pressure After Treatment Compared to Untreated Eye (intraocular pressure; 90 minutes) [%]
51	4.8	11	5-Methoxy-1-(3-phenylpyrrolidino-1-methyl) indane hydrochloride [Example 152]	–	–	–	–	–
118	0.5	236	CN(C)c1ccc2c(c1)CCCC2CN1CCC(c2ccccc2)C1 (centres unmarked) [Example 188, 6-(N-N'-dimethylamino)-1-(3-phenylpyrrolidino-1-methyl)tetralin dihydrochloride]	–	–	–	–	–
